The source of these data is patent US6809065B2, “Herbicide containing substituted pyrazole derivative as active ingredient” (SDS Biotech K.K., priority 2001, dated 2004).

For series [1], the system named is wheat (Triticum aestivum). The series can be described thus: Upland soil treatment (Test Example 2), crop. It counts as in vivo. The conditions noted are these: soil surface treatment next day after sowing, 1 kg active ingredient per hectare, evaluated 21st day, lower index = higher safety. Put shortly:
(§1)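 Pre-emergence soil treatment: day after sowing, WP formulation diluted in water, applied uniformly to soil surface at 1 kg a.i./ha. Seeds sown ~1 cm deep in upland soil. Visual index read 21 d after application (weeds: high = effective; crop: low = safe).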

The test system of series [2] is soybean (Glycine max). The series can be described thus: Upland soil treatment (Test Example 2), crop. As to conditions: soil surface treatment next day after sowing, 1 kg active ingredient per hectare, evaluated 21st day, lower index = higher safety. It counts as in vivo. Put shortly:
as §1

Series [3] has as its system Digitaria adscendens. The series can be described thus: Upland field foliage treatment (Test Example 1). Format: in vivo. As to conditions: foliage treatment 14th day after sowing, wettable powder, 1 kg active ingredient per hectare, evaluated 21st day after application. The procedure, abridged:
(§2)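 Read-out is a visual index scored 21 days after treatment. Higher values mean more herbicidal effect on weeds and lower values mean better crop safety. Plants were raised from seed in upland soil and received a leaf-surface spray of 1 kg active ingredient per hectare at 14 days.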

In series [4] the test system is Stellaria media. Briefly: Upland field foliage treatment (Test Example 1). Format: in vivo. The conditions noted are these: foliage treatment 14th day after sowing, wettable powder, 1 kg active ingredient per hectare, evaluated 21st day after application. The procedure, abridged:
as §2

Series [5] relates to Setaria viridis. Briefly: Upland field foliage treatment (Test Example 1). Format: in vivo. The conditions noted are these: foliage treatment 14th day after sowing, wettable powder, 1 kg active ingredient per hectare, evaluated 21st day after application. Put shortly:
as §2

Series [6] relates to Chenopodium album. The series can be described thus: Upland field foliage treatment (Test Example 1). Format: in vivo. The conditions noted are these: foliage treatment 14th day after sowing, wettable powder, 1 kg active ingredient per hectare, evaluated 21st day after application. Put shortly: as §2
For series [7], the system named is rice (Oryza sative, variety: Koshihikari). Briefly: Paddy field treatment (Test Example 3), crop. Format: in vivo, Oryza sativa. The conditions noted are these: transplanted rice two-leaf period, water surface treatment 10th day after transplantation, 1 kg active ingredient per hectare, evaluated 21st day, lower index = higher safety. Put shortly:
(§3)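 Pot test, flooded paddy soil (4 cm water); weeds sown, 2-leaf rice (Koshihikari) transplanted. Day 10 post-transplant: WP dropped on water, 1 kg a.i./ha. Score index at 21 d after application; higher = stronger herbicidal effect.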

The test system of series [8] is Monochoria vaginalis. The series can be described thus: Paddy field treatment (Test Example 3). As to conditions: paddy pot, submerged 4 cm, dropped on water surface 10th day after transplantation, 1 kg active ingredient per hectare, evaluated 21st day. It counts as in vivo. The procedure, abridged: as §3
Series [9] relates to Scirpus juncoides. The series can be described thus: Paddy field treatment (Test Example 3). Format: in vivo. The conditions noted are these: paddy pot, submerged 4 cm, dropped on water surface 10th day after transplantation, 1 kg active ingredient per hectare, evaluated 21st day. Put shortly:
as §3

Series [10] has as its system Ammannia multiflora. Briefly: Paddy field treatment (Test Example 3). It counts as in vivo. As to conditions: paddy pot, submerged 4 cm, dropped on water surface 10th day after transplantation, 1 kg active ingredient per hectare, evaluated 21st day. Put shortly: as §3
The subject of series [11] is Echinochloa spp. Briefly: Paddy field treatment (Test Example 3). It counts as in vivo, Echinochloa crusgalli. The conditions noted are these: paddy pot, submerged 4 cm, dropped on water surface 10th day after transplantation, 1 kg active ingredient per hectare, evaluated 21st day. Put shortly: as §3
Series [12] deals with Digitaria adscendens. Briefly: Upland soil treatment (Test Example 2). Format: in vivo. As to conditions: soil surface treatment next day after sowing, wettable powder, 1 kg active ingredient per hectare, evaluated 21st day after application. Put shortly: as §1
Series [13] concerns Stellaria media. The series can be described thus: Upland soil treatment (Test Example 2). As to conditions: soil surface treatment next day after sowing, wettable powder, 1 kg active ingredient per hectare, evaluated 21st day after application. It counts as in vivo. The procedure, abridged: as §1
Series [14] concerns Setaria viridis. Briefly: Upland soil treatment (Test Example 2). It counts as in vivo. As to conditions: soil surface treatment next day after sowing, wettable powder, 1 kg active ingredient per hectare, evaluated 21st day after application. Put shortly: as §1
Series [15] concerns Chenopodium album. The series can be described thus: Upland soil treatment (Test Example 2). The conditions noted are these: soil surface treatment next day after sowing, wettable powder, 1 kg active ingredient per hectare, evaluated 21st day after application. It counts as in vivo. Put shortly:
as §1

In series [16] the test system is wheat (Triticum aestivum). Briefly: Upland field foliage treatment (Test Example 1), crop. It counts as in vivo. The conditions noted are these: foliage treatment 14th day after sowing, 1 kg active ingredient per hectare, evaluated 21st day, lower index = higher safety. Put shortly: as §2
Series [17] concerns soybean (Glycine max). The series is described as above. The conditions noted are these: foliage treatment 14th day after sowing, 1 kg active ingredient per hectare, evaluated 21st day, lower index = higher safety. It counts as in vivo. The procedure, abridged:
as §2

In the case of `COC=C(Cn1nc(-c2cccc(Cl)c2Cl)c(Br)c1C)C(=O)OC` [Compound 29], the “Herbicidal activity Triticum aestivum” value in series [1] was 0 (herbicidal effect of not less than 0% by weight and less than 10% by weight); in [16] it was 1 (herbicidal effect of not less than 10% by weight and less than 30% by weight). Besides, the “Herbicidal activity Glycine max” value in series [2] is 0 (herbicidal effect of not less than 0% by weight and less than 10% by weight); in series [17], 1 (herbicidal effect of not less than 10% by weight and less than 30% by weight). For the same compound, the “Herbicidal activity Digitaria adscendens” value in series [3] is 5 (herbicidal effect of not less than 90% by weight); in series [12] it was 4 (herbicidal effect of not less than 70% by weight and less than 90% by weight). Moreover, the “Herbicidal activity Stellaria media” value in [4] is 5 (herbicidal effect of not less than 90% by weight); in series [13] it was 4 (herbicidal effect of not less than 70% by weight and less than 90% by weight). The “Herbicidal activity Setaria viridis” value in series [5] was 4 (herbicidal effect of not less than 70% by weight and less than 90% by weight); in [14] it was 4 (herbicidal effect of not less than 70% by weight and less than 90% by weight). The “Herbicidal activity Chenopodium album” value in series [6] is 5 (herbicidal effect of not less than 90% by weight); in [15] it was 4 (herbicidal effect of not less than 70% by weight and less than 90% by weight). For the same compound, in series [7], the “Herbicidal activity Oryza sativa” value was 0 (herbicidal effect of not less than 0% by weight and less than 10% by weight). For the same compound, the “Herbicidal activity Monochoria vaginalis” value in series [8] is 5 (herbicidal effect of not less than 90% by weight). The “Herbicidal activity Scirpus juncoides” value in [9] was 4 (herbicidal effect of not less than 70% by weight and less than 90% by weight). In addition, the “Herbicidal activity Ammannia multiflora” value in series [10] is 5 (herbicidal effect of not less than 90% by weight). Also, in series [11], the “Herbicidal activity Echinochloa spp.” value is 4 (herbicidal effect of not less than 70% by weight and less than 90% by weight).
As to `COC=C(Cn1nc(-c2ccc(Cl)cc2Cl)c(Br)c1C)C(=O)OC` [Compound 30], the “Herbicidal activity Triticum aestivum” value in [1] was 0 (herbicidal effect of not less than 0% by weight and less than 10% by weight); in series [16] it was 0 (herbicidal effect of not less than 0% by weight and less than 10% by weight). Also, the “Herbicidal activity Glycine max” value in series [2] is 0 (herbicidal effect of not less than 0% by weight and less than 10% by weight); in series [17] it was 1 (herbicidal effect of not less than 10% by weight and less than 30% by weight). In addition, the “Herbicidal activity Digitaria adscendens” value in series [3] and in series [12] was 5 (herbicidal effect of not less than 90% by weight) in each case. The “Herbicidal activity Stellaria media” value was 5 (herbicidal effect of not less than 90% by weight) in series [4]; 4 (herbicidal effect of not less than 70% by weight and less than 90% by weight) in series [13]. The “Herbicidal activity Setaria viridis” value was 4 (herbicidal effect of not less than 70% by weight and less than 90% by weight) in series [5]; 5 (herbicidal effect of not less than 90% by weight) in [14]. The “Herbicidal activity Chenopodium album” value was 5 (herbicidal effect of not less than 90% by weight) in series [6]; 4 (herbicidal effect of not less than 70% by weight and less than 90% by weight) in [15]. Also, the “Herbicidal activity Oryza sativa” value in series [7] is 0 (herbicidal effect of not less than 0% by weight and less than 10% by weight). In addition, the “Herbicidal activity Monochoria vaginalis” value in series [8] is 5 (herbicidal effect of not less than 90% by weight). Besides, the “Herbicidal activity Scirpus juncoides” value in series [9] was 4 (herbicidal effect of not less than 70% by weight and less than 90% by weight). Also, the “Herbicidal activity Ammannia multiflora” value in series [10] is listed as 5 (herbicidal effect of not less than 90% by weight). In addition, the “Herbicidal activity Echinochloa spp.” value in [11] was 4 (herbicidal effect of not less than 70% by weight and less than 90% by weight).
On to `COC=C(Cn1nc(-c2cc(Cl)ccc2Cl)c(Br)c1C)C(=O)OC` [Compound 31], for which the “Herbicidal activity Triticum aestivum” value in series [1] was 0 (herbicidal effect of not less than 0% by weight and less than 10% by weight); in series [16] it was 1 (herbicidal effect of not less than 10% by weight and less than 30% by weight). For the same compound, the “Herbicidal activity Glycine max” value in series [2] is 0 (herbicidal effect of not less than 0% by weight and less than 10% by weight); in [17] it was 1 (herbicidal effect of not less than 10% by weight and less than 30% by weight). Besides, the “Herbicidal activity Digitaria adscendens” value in series [3] and in [12] was 5 (herbicidal effect of not less than 90% by weight) each time. The “Herbicidal activity Stellaria media” value in series [4] and in [13] was 5 (herbicidal effect of not less than 90% by weight) in each case. Also, the “Herbicidal activity Setaria viridis” value in [5] and in [14] was 5 (herbicidal effect of not less than 90% by weight) in each case. In addition, the “Herbicidal activity Chenopodium album” value in [6] and in series [15] was 5 (herbicidal effect of not less than 90% by weight) each time. In series [7], the “Herbicidal activity Oryza sativa” value is 1 (herbicidal effect of not less than 10% by weight and less than 30% by weight). Besides, the “Herbicidal activity Monochoria vaginalis” value in [8] is on record as 5 (herbicidal effect of not less than 90% by weight). In [9], the “Herbicidal activity Scirpus juncoides” value is 5 (herbicidal effect of not less than 90% by weight). In addition, the “Herbicidal activity Ammannia multiflora” value in series [10] is given as 5 (herbicidal effect of not less than 90% by weight). Also, in [11], the “Herbicidal activity Echinochloa spp.” value was 5 (herbicidal effect of not less than 90% by weight).
Turning to `COC=C(Cn1nc(-c2cc(Cl)cc(Cl)c2)c(Br)c1C)C(=O)OC` [Compound 32], the “Herbicidal activity Triticum aestivum” value in [1] was 0 (herbicidal effect of not less than 0% by weight and less than 10% by weight); in series [16], 0 (herbicidal effect of not less than 0% by weight and less than 10% by weight). For the same compound, the “Herbicidal activity Glycine max” value in series [2] was 0 (herbicidal effect of not less than 0% by weight and less than 10% by weight); in [17], 0 (herbicidal effect of not less than 0% by weight and less than 10% by weight). Besides, the “Herbicidal activity Digitaria adscendens” value in series [3] was 4 (herbicidal effect of not less than 70% by weight and less than 90% by weight); in [12], 4 (herbicidal effect of not less than 70% by weight and less than 90% by weight). Also, the “Herbicidal activity Stellaria media” value in [4] was 4 (herbicidal effect of not less than 70% by weight and less than 90% by weight); in [13], 4 (herbicidal effect of not less than 70% by weight and less than 90% by weight). Moreover, the “Herbicidal activity Setaria viridis” value is 4 (herbicidal effect of not less than 70% by weight and less than 90% by weight) in series [5]; 4 (herbicidal effect of not less than 70% by weight and less than 90% by weight) in series [14]. The “Herbicidal activity Chenopodium album” value is 4 (herbicidal effect of not less than 70% by weight and less than 90% by weight) in [6]; 4 (herbicidal effect of not less than 70% by weight and less than 90% by weight) in series [15]. In series [7], the “Herbicidal activity Oryza sativa” value is 0 (herbicidal effect of not less than 0% by weight and less than 10% by weight). Further, the “Herbicidal activity Monochoria vaginalis” value in [8] is 3 (herbicidal effect of not less than 50% by weight and less than 70% by weight). Besides, the “Herbicidal activity Scirpus juncoides” value in [9] was 3 (herbicidal effect of not less than 50% by weight and less than 70% by weight). The “Herbicidal activity Ammannia multiflora” value in series [10] was 3 (herbicidal effect of not less than 50% by weight and less than 70% by weight). Further, the “Herbicidal activity Echinochloa spp.” value in series [11] was 3 (herbicidal effect of not less than 50% by weight and less than 70% by weight).
